Source: patent US10041104B2, “Microfluidic device” (Astrego Diagnostics AB, priority 2014, dated 2018)
Converted amounts (≈) assume the structure as drawn.

Columns and labels:
[1] = test system: chloramphenicol-susceptible E. coli strain; test: minimum inhibitory concentration (MIC); assay type: cell-based; settings: Escherichia coli
[2] = test system: chloramphenicol-susceptible and chloramphenicol-resistant E. coli strains; test: AST test in microfluidic device, phase contrast images (FIG. 15); assay type: cell-based, Escherichia coli; settings: both strains exposed to 6 μg/ml chloramphenicol; images taken 15 min apart
From the text: The microfluidic device of the embodiments can be used for various applications. An example of such application is antibiotic susceptibility testing (AST). For example, the microfluidic device 1 shown in FIG. 10 can be used for this purpose. In such a case, the sample strain can be loaded from, for instance, the common second fluid port 33A using the first fluid ports 31A′, 31B′, 31C′ as output ports for excess cells and culture medium and the common third fluid port 51 as output port for culture medium and for sucking cells into the cell channels. In an example, during loading culture medium is flown from the common second fluid port 33C to the common second fluid port 33B to prevent contaminating the common second fluid port 33C. After cell loading culture medium preferably flows from the common second fluid port 33C using the first fluid ports 31A′, 31B′, 31C′ and the common third fluid port 51 as output ports. At this stage growth of the cells in the cell channels can be monitored for some time, 0 min to days, while imaging the cells in the different cell channels. […] Susceptibility is monitored by the phenotypic response to antibiotic in the different cell channels. […] Some phenotypic changes are best studied by addition of test agents, such as 4′,6-diamidino-2-phenylindole (DAPI) and SYTOX® fluorescent stains, that can be monitored in a florescence channel. […]

[3] = test system: chloramphenicol-resistant E. coli strain; test: minimum inhibitory concentration (MIC); assay type: cell-based; settings: Escherichia coli
[4] = test system: ciprofloxacin resistant E. coli strain DA20859; test: minimum inhibitory concentration (MIC); assay type: cell-based; settings: Escherichia coli
[5] = test system: ciprofloxacin resistant E. coli strain DA20859; test: AST in microfluidic device, average growth rate response by phase contrast time lapse imaging (FIG. 18); assay type: cell-based, Escherichia coli
From the text: The microfluidic device of the embodiments can be used for various applications. An example of such application is antibiotic susceptibility testing (AST). For example, the microfluidic device 1 shown in FIG. 10 can be used for this purpose. In such a case, the sample strain can be loaded from, for instance, the common second fluid port 33A using the first fluid ports 31A′, 31B′, 31C′ as output ports for excess cells and culture medium and the common third fluid port 51 as output port for culture medium and for sucking cells into the cell channels. In an example, during loading culture medium is flown from the common second fluid port 33C to the common second fluid port 33B to prevent contaminating the common second fluid port 33C. After cell loading culture medium preferably flows from the common second fluid port 33C using the first fluid ports 31A′, 31B′, 31C′ and the common third fluid port 51 as output ports. At this stage growth of the cells in the cell channels can be monitored for some time, 0 min to days, while imaging the cells in the different cell channels. The AST test starts by flowing different antibiotics or a same antibiotic but at different concentrations into the different sets 2A, 2B, 2C of cell channels using the first fluid ports 31A, 31B, 31C as input ports, while using the common second fluid ports 33A, 33B, 33C and the common third fluid port 51 as output ports. Susceptibility is monitored by the phenotypic response to antibiotic in the different cell channels. For example, it is possible to determine the average growth rate and the cell to cell distribution of growth rates just by monitoring the length extension in phase contrast using automatics images analysis routines. These measurements can be averaged over cells in many cell channels such that it is possible to determine minute phenotypic changes within a few minutes. Phenotypic changes can also be in morphological changes, such as the compaction of DNA or changes in membrane structure or in integrity. Some phenotypic changes are best studied by addition of test agents, such as 4′,6-diamidino-2-phenylindole (DAPI) and SYTOX® fluorescent stains, that can be monitored in a florescence channel.
The E. coli strain was exposed to (1) no drug marked with “x”, (2) erythromycin at 120 μg/ml marked with diamonds or (3) ciprofloxacin 10 μg/ml marked with circles. The time point 0 min corresponds to the start of the treatment. The curve corresponding to treatment with the drug (erythromycin) for which the strain is susceptible can be distinguished from the no treatment curve in <10 min. The curve corresponding to treatment with the drug for which the strain is susceptible can be distinguished from the curve corresponding to the drug (ciprofloxacin) for which the strain is resistant in <15 min.

[6] = test system: erythromycin-resistant E. coli strain; test: minimum inhibitory concentration (MIC); assay type: cell-based; settings: Escherichia coli
[7] = test system: erythromycin-resistant and erythromycin-susceptible E. coli strains; test: AST in microfluidic device, average growth rate response (FIG. 17); assay type: cell-based, Escherichia coli; settings: 120 μg/ml erythromycin at time 0 min
From the text: The microfluidic device of the embodiments can be used for various applications. An example of such application is antibiotic susceptibility testing (AST). For example, the microfluidic device 1 shown in FIG. 10 can be used for this purpose. In such a case, the sample strain can be loaded from, for instance, the common second fluid port 33A using the first fluid ports 31A′, 31B′, 31C′ as output ports for excess cells and culture medium and the common third fluid port 51 as output port for culture medium and for sucking cells into the cell channels. In an example, during loading culture medium is flown from the common second fluid port 33C to the common second fluid port 33B to prevent contaminating the common second fluid port 33C. After cell loading culture medium preferably flows from the common second fluid port 33C using the first fluid ports 31A′, 31B′, 31C′ and the common third fluid port 51 as output ports. At this stage growth of the cells in the cell channels can be monitored for some time, 0 min to days, while imaging the cells in the different cell channels. […] Susceptibility is monitored by the phenotypic response to antibiotic in the different cell channels. […] Some phenotypic changes are best studied by addition of test agents, such as 4′,6-diamidino-2-phenylindole (DAPI) and SYTOX® fluorescent stains, that can be monitored in a florescence channel.

[8] = test system: erythromycin-susceptible (non-resistant) E. coli strains; test: minimum inhibitory concentration (MIC); assay type: cell-based; settings: Escherichia coli; two non-resistant E. coli strains (circles and diamonds in FIG. 17)

Row | Compound | MIC [1] | growth of susceptible strain compared with resistant strain [2] | MIC [3] | MIC [4] | susceptibility of the strain to the drug [5] | MIC [6] | time in which resistant strain can be distinguished from susceptible strains (average growth rate) [7] | time in which treatment curve can be distinguished from no treatment curve (average growth rate) ([5]; erythromycin 120 μg/ml) | time in which curve of drug for which strain is susceptible can be distinguished from curve of drug for which strain is resistant ([5]; erythromycin 120 μg/ml versus ciprofloxacin 10 μg/ml) | MIC [8]
1 | O=C(N[C@H](CO)[C@H](O)c1ccc([N+](=O)[O-])cc1)C(Cl)Cl [chloramphenicol] | ~4 µg/mL (≈ 12.4 µM) | grown much less than the chloramphenicol-resistant strain | > 12 µg/mL | – | – | – | – | – | – | –
2 | O=C(O)c1cn(C2CC2)c2cc(N3CCNCC3)c(F)cc2c1=O [ciprofloxacin] | – | – | – | ~30 µg/mL (≈ 90.5 µM) | resistant | – | – | – | – | –
3 | CC[C@H]1OC(=O)[C@H](C)[C@@H](O[C@H]2C[C@@](C)(OC)[C@@H](O)[C@H](C)O2)[C@H](C)[C@@H](O[C@@H]2O[C@H](C)C[C@H](N(C)C)[C@H]2O)[C@](C)(O)C[C@@H](C)C(=O)[C@H](C)[C@@H](O)[C@]1(C)O [erythromycin] | – | – | – | – | susceptible | 256 µg/mL (≈ 349 µM) | less than 20 min | < 10 min | < 15 min | ~12 µg/mL (≈ 16.4 µM)
